Where two headings read alike, the source gives them in different places.
Test: Pharmacokinetics of rivaroxaban in rats, alone and after multiple doses of almonertinib
Format: in vivo, Sprague-Dawley (SD) rats
Settings: for AUC(0-inf) / Cmax / Tmax / CL/F / MRT last / MRT inf / Vd/F: po; for CL/F: read-out: CLz/F (converted); for MRT last: read-out: MRT0-t; for MRT inf: read-out: MRT0-∞; for Vd/F: read-out: Vz/F; for half-life: read-out: t1/2z (converted)
Experimental: Analytes were measured using UPLC-MS/MS, which was equipped with an LC-30A ultra-performance liquid chromatography (Shimadzu, Kyoto, Japan) and Sciex Triple Quad 5,500 tandem triple quadrupole mass spectrometer (AB Sciex, Framingham, MA, United States). Chromatographic separation was performed using an XSelect HSS T3 column (2.1 mm × 100 mm, 2.5 µm, Waters, Milford, MA, United States) at 40°C by gradient elution. The mobile phase consisted of water (A) and acetonitrile (0.1% formic acid, B). The elution procedure was as follows: 0–1.0 min, 50% B; 1.0–1.5 min, 50%→98% B; 1.5–3.0 min, 98% B; 3.0–3.1 min, 98%→50% B; 3.1–4.1 min, 50% B. The flow rate was 0.35 mL min^−1, and the injection volume was 6 µL.
The positive ion mode with multiple reaction detection was used. […] The mass spectrometer conditions, including delustering potential (DP) and collision energy (CE) of the compounds, are shown in Table 1. Other parameters of the mass spectrometer were as follows: ion source gas 1, 60.0 psi; ion source gas 2, 50.0 psi; curtain gas, 25.0 psi; source temperature, 500°C; ion spray voltage, 5,500 V.
Protein precipitation was used to process the plasma samples. 5 μL of mixed IS working solution, 50 µL of the plasma samples, and 150 µL of acetonitrile were vortex-mixed for 1.0 min. Then, the mixture was centrifuged at 13,000 × g for 10 min; 100 µL of 50% acetonitrile-water was added to 100 µL of supernatant, vortex-mixed, and centrifuged again. The supernatant was transferred to a 96-well plate for sample analysis.
Healthy male Sprague-Dawley (SD) rats weighing 250 ± 20 g were purchased from Beijing Huafukang Biotechnology Co., Ltd. (Beijing, China). The license number is SCXK (Beijing) 2019–0008. The study was approved and supervised by the Animal Ethics Committee of Hebei General Hospital (Shijiazhuang, China) (No. 2023024). Adaptive feeding (sufficient food and water) was performed for 1 week before the experiment. All the rats were kept under suitable conditions (12 h dark-light diurnal cycle, appropriate temperature at 23°C–25°C, relative humidity of 50% ± 10%). All rats were fasted for 12 h before starting the experiments while still given water.
Sixty healthy rats were randomly divided into ten groups (n = 6). […] Blood samples were centrifuged at 3,500 g for 10 min, and then the supernatant was gathered and stored in a −80°C refrigerator. After, rat intestine, kidney and liver tissues were harvested for molecular analysis on the ninth or fifth day after treatment with the corresponding drugs for each group. The tissues were placed immediately at −80°C.
DAS 2.1.1 Software (Mathematical Pharmacology Professional Committee of China, Shanghai, China) was applied to calculate pharmacokinetic parameters using non-compartmental analysis. SPSS 25.0 statistical software (SPSS Inc., Chicago, IL, United States) was applied to statistically analyze the main pharmacokinetic parameters, including AUC, Cmax, Tmax, t1/2, CLz/F, Vz/F, and MRT. Statistical comparisons were conducted using a analysis of variance, t-test or nonparametric rank-sum test depending on the data type; p-value <0.05 was deemed statistically significant.

[1] = male, Sprague-Dawley, rat, plasma, 1 mg/kg, rats, oral rivaroxaban 1 mg/kg after almonertinib 15 mg/kg for nine days (group 6), mean ± SD, n = 6
[2] = male, Sprague-Dawley, rat, plasma, 2 mg/kg, rats, oral rivaroxaban 2 mg/kg after almonertinib 15 mg/kg for nine days (group 5), mean ± SD, n = 6
[3] = male, Sprague-Dawley, rat, plasma, 2 mg/kg, rats, oral rivaroxaban 2 mg/kg alone (group 1), mean ± SD, n = 6
[4] = rats, oral rivaroxaban 2 mg/kg after almonertinib 15 mg/kg for nine days (group 5), mean ± SD, n = 6
[5] = rivaroxaban 1 mg/kg with multiple doses of almonertinib (group 6) compared to group 1, rats
[6] = rivaroxaban 2 mg/kg with multiple doses of almonertinib (group 5) compared to group 1, rats

SMILES: O=C(NC[C@H]1CN(c2ccc(N3CCOCC3=O)cc2)C(=O)O1)c1ccc(Cl)s1 [rivaroxaban, Rivaroxaban]
- increase of AUC of rivaroxaban (after a half dose reduction of rivaroxaban, multiple doses of almonertinib, rats (discussion)): ~1.9 fold
- increase of AUC of rivaroxaban (co-administration with almonertinib for multiple doses, rats (discussion, AUC not specified further)): more than 3.0 fold
- AUC(0-inf) [1]: 2230 ng·h/mL
- Cmax [1]: 457 ± 101 ng/mL
- Tmax [1]: 2.08 ± 0.49 h
- CL/F [1]: 7.83 mL/min/kg
- MRT last [1]: 4.1 ± 0.41 h
- MRT inf [1]: 4.3 ± 0.47 h
- Vd/F [1]: 2.83 ± 0.55 L/kg
- AUC(0-inf) [2]: 3540 ng·h/mL
- Cmax [2]: 862 ± 110 ng/mL
- Tmax [2]: 2.21 ± 0.95 h
- CL/F [2]: 10 mL/min/kg
- MRT last [2]: 3.94 ± 0.56 h
- MRT inf [2]: 4.12 ± 0.6 h
- Vd/F [2]: 3.75 ± 0.72 L/kg
- AUC(0-inf) [3]: 797 ± 169 ng·h/mL
- Cmax [3]: 200 ± 38 ng/mL
- Tmax [3]: 0.92 ± 0.3 h
- CL/F [3]: 43.7 mL/min/kg
- MRT last [3]: 4.72 ± 0.57 h
- MRT inf [3]: 6.09 ± 1.45 h
- Vd/F [3]: 26.4 ± 18 L/kg
- AUC(0-t) (male, Sprague-Dawley, rat, plasma, rats, oral rivaroxaban 1 mg/kg after almonertinib 15 mg/kg for nine days (group 6), mean ± SD, n = 6, read-out: AUC0-t): 2220 ng·h/mL
- half-life (male, Sprague-Dawley, rat, plasma, rats, oral rivaroxaban 1 mg/kg after almonertinib 15 mg/kg for nine days (group 6), mean ± SD, n = 6): 4.3 ± 0.91 h
- AUC(0-t) (male, Sprague-Dawley, rat, plasma, rats, oral rivaroxaban 2 mg/kg alone (group 1), mean ± SD, n = 6, read-out: AUC0-t): 764 ± 164 ng·h/mL
- half-life (male, Sprague-Dawley, rat, plasma, rats, oral rivaroxaban 2 mg/kg alone (group 1), mean ± SD, n = 6): 6.84 ± 3.46 h
- AUC(0-t) [4]: 3,511.15 ± 783.84 μg/L*h
- t1/2z [4]: 4.47 ± 0.80 h
- Tmax of rivaroxaban longer than control [5]: 1.26 fold
- decrease of CLz/F of rivaroxaban [5]: 4.57 fold
- increase of AUC0-t of rivaroxaban [5]: 1.90 fold
- Tmax of rivaroxaban longer than control [6]: 1.40 fold
- decrease of CLz/F of rivaroxaban [6]: 3.37 fold
- increase of AUC0-t of rivaroxaban [6]: 3.60 fold
- increase of AUC0-∞ of rivaroxaban [6]: 3.44 fold

From PMC10582335 (Frontiers in Pharmacology, 2023)
